This passage reports IC50 results from ChEMBL document CHEMBL4417631, “Oral peptide inhibitors of interleukin-23 receptor and their use to treat inflammatory bowel diseases” (2017).

Each structure is given as a SMILES string. Where a SMILES comes first, the peptide text is derived from it. Bridges are numbered along the chain shown (N, C = ends). Roman numbers before positions name the chains, in order. The star is where a group is joined. Palmitoyl = CCCCCCCCCCCCCCCC(=O)* A value given as a limit tells only on which side of the number the result lay.

This experiment deals with T1, Interleukin-23 receptor (Homo sapiens, UniProt Q5VWK5).
T1 sequence (Q5VWK5 whole entry): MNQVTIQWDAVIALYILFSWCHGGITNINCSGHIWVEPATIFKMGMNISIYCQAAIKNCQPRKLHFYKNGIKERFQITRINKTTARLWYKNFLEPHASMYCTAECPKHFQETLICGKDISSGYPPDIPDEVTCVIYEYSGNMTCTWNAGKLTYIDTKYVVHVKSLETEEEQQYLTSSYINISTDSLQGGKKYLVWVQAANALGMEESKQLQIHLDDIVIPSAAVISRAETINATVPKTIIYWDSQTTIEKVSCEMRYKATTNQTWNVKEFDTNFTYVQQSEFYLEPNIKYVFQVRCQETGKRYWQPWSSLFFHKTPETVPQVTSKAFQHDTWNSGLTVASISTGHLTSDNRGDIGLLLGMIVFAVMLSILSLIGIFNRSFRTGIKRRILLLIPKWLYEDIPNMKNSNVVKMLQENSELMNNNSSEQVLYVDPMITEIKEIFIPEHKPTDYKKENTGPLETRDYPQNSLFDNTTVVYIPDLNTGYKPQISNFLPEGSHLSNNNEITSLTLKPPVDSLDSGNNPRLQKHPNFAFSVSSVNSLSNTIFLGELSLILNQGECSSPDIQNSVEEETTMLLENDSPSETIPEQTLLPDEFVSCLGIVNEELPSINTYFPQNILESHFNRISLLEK
In words: Inhibition of interleukin-23 binding to human interleukin-23 receptor incubated for 2 hrs by competitive binding ELISA.
Consider `CC(=O)N[C@@H](CS)C(=O)N[C@@H](C)C(=O)N[C@@H](CC(=O)O)C(=O)N[C@@H](Cc1c[nH]c2ccccc12)C(=O)N[C@H](C(=O)N[C@@H](CS)C(=O)N[C@@H](Cc1ccc(O)cc1)C(=O)N[C@@H](Cc1c[nH]c2ccccc12)C(=O)N[C@@H](Cc1cnc[nH]1)C(=O)N[C@@H](Cc1ccccc1)C(=O)N[C@@H](Cc1cnc[nH]1)C(=O)N[C@@H](CCC(N)=O)C(=O)N[C@@H](CC(C)C)C(=O)N[C@@H](CCCNC(=N)N)C(=O)N[C@@H](CC(=O)O)C(=O)N[C@@H](C)C(N)=O)C(C)C` (Ac-CADWVCYWHFHQLRDA-NH2), for which the half-maximal inhibitory concentration (IC50) (in general, the concentration that gives 50% inhibition) was in the range of 500 to 1000 nM.
The value for `CC(=O)N[C@@H](CS)C(=O)N[C@@H](CCC(N)=O)C(=O)N[C@H](C(=O)N[C@@H](Cc1c[nH]c2ccccc12)C(=O)N[C@@H](CCC(N)=O)C(=O)N[C@@H](CS)C(=O)N[C@@H](Cc1ccc(O)cc1)C(=O)N[C@@H](Cc1c[nH]c2ccccc12)C(=O)N[C@@H](CCCNC(=N)N)C(=O)N(C)[C@@H](CCCCN)C(=O)N[C@@H](CC(N)=O)C(=O)NCC(=O)NCCOCC(=O)N[C@H](CCCCN)C(N)=O)[C@@H](C)O` was more than 1000 nM; that for `CC(=O)NCC(=O)NCC(=O)N[C@H](C(=O)N[C@@H](CCC(=O)O)C(=O)N[C@@H](CS)C(=O)N[C@@H](CC(N)=O)C(=O)N[C@@H](CC(=O)O)C(=O)N[C@@H](Cc1c[nH]c2ccccc12)C(=O)N[C@@H](CCC(N)=O)C(=O)N[C@@H](CS)C(=O)N[C@@H](Cc1ccc(O)cc1)C(=O)N[C@@H](Cc1c[nH]c2ccccc12)C(=O)N[C@@H](Cc1cnc[nH]1)C(=O)N[C@H](C(=O)N[C@@H](Cc1ccccc1)C(=O)NCC(N)=O)[C@@H](C)O)C(C)C` (Ac-GGVECNDWQCYWHTFG-NH2) was 500 to 1000 nM; that for `C[C@@H](O)[C@H](NC(=O)[C@@H]1CCCN1C(=O)[C@@H](N)Cc1ccccc1)C(=O)N[C@@H](Cc1c[nH]c2ccccc12)C(=O)N[C@@H](CCC(=O)O)C(=O)N[C@@H](Cc1c[nH]c2ccccc12)C(=O)N[C@@H](Cc1ccc(O)cc1)C(=O)N[C@@H](Cc1c[nH]c2ccccc12)C(=O)N[C@@H](CSSC[C@H](NC(=O)[C@H](Cc1c[nH]c2ccccc12)NC(=O)[C@H](Cc1ccc(O)cc1)NC(=O)[C@H](Cc1c[nH]c2ccccc12)NC(=O)[C@H](CCC(=O)O)NC(=O)[C@H](Cc1c[nH]c2ccccc12)NC(=O)[C@@H](NC(=O)[C@@H]1CCCN1C(=O)[C@@H](N)Cc1ccccc1)[C@@H](C)O)C(=O)N[C@@H](CC(N)=O)C(=O)N[C@@H](CCCNC(=N)N)C(=O)N[C@@H](CC(=O)O)C(N)=O)C(=O)N[C@@H](CC(N)=O)C(=O)N[C@@H](CCCNC(=N)N)C(=O)N[C@@H](CC(=O)O)C(N)=O` (I: H-FPTWEWYWCNRD-NH2 / II: H-FPTWEWYWCNRD-NH2; disulfide I:9-II:9) was 1000 to 10000 nM.
In the case of `CC(=O)NC1CC/C=C\CCCC(C(=O)N[C@@H](Cc2ccc(O)cc2)C(=O)N[C@@H](Cc2c[nH]c3ccccc23)C(=O)N[C@@H](CCCNC(=N)N)C(=O)N[C@@H](CCCCN)C(=O)N[C@@H](Cc2ccccc2)C(=O)NCC(=O)NCCOCC(=O)N[C@H](CCCCN)C(N)=O)NC(=O)[C@H](CCC(N)=O)NC(=O)[C@H](Cc2c[nH]c3ccccc23)NC(=O)[C@H]([C@@H](C)O)NC(=O)[C@H](CCCNC(=N)N)NC1=O` (some centres undefined), the IC50 is 1000 to 10000 nM.
In the case of `CC(=O)N[C@H](CCCCN)C(=O)N[C@@H](CS)C(=O)N[C@@H](C)C(=O)N[C@@H](CC(=O)O)C(=O)N[C@@H](Cc1c[nH]c2ccccc12)C(=O)N[C@H](C(=O)N[C@@H](CS)C(=O)N[C@@H](Cc1ccc(O)cc1)C(=O)N[C@@H](Cc1c[nH]c2ccccc12)C(=O)N[C@@H](Cc1cnc[nH]1)C(=O)N[C@H](C(=O)N[C@@H](Cc1ccccc1)C(=O)NCC(=O)O)[C@@H](C)O)C(C)C` it was more than 1000 nM; in that of `CC(=O)N[C@@H](CS)C(=O)N[C@@H](C)C(=O)N[C@@H](CC(=O)O)C(=O)N[C@@H](Cc1c[nH]c2ccccc12)C(=O)N[C@H](C(=O)N[C@@H](CS)C(=O)N[C@@H](Cc1ccc(O)cc1)C(=O)N[C@@H](Cc1ccc(C(F)(F)F)cc1)C(=O)N[C@@H](CCCN)C(=O)N[C@@H](CN)C(=O)N[C@@H](Cc1ccccc1)C(=O)NCC(=O)NCCOCC(=O)N[C@H](CCCCN)C(N)=O)C(C)C`, more than 1000 nM; in that of `NC(=O)CNC(=O)[C@H](Cc1ccc(O)cc1)NC(=O)[C@H](Cc1cnc[nH]1)NC(=O)[C@H](Cc1cnc[nH]1)NC(=O)[C@H](Cc1c[nH]c2ccccc12)NC(=O)[C@H](Cc1ccc(O)cc1)NC(=O)[C@H](CS)NC(=O)[C@H](CCC(=O)O)NC(=O)[C@H](Cc1c[nH]c2ccccc12)NC(=O)[C@H](CC(N)=O)NC(=O)[C@H](CO)NC(=O)[C@@H](N)CS` (H-CSNWECYWHHYG-NH2), 500 to 1000 nM.
In turn, `CC(=O)N[C@@H](CS)C(=O)N[C@@H](CCC(N)=O)C(=O)N[C@H](C(=O)N[C@@H](Cc1c[nH]c2ccccc12)C(=O)N[C@@H](CCC(N)=O)C(=O)N[C@@H](CS)C(=O)N[C@@H](Cc1ccc(O)cc1)C(=O)N[C@@H](Cc1c[nH]c2ccccc12)C(=O)N[C@@H](CCCNC(=N)N)C(=O)N(C)[C@@H](CCCNC(=N)N)C(=O)N[C@@H](CC(N)=O)C(=O)NCC(=O)NCCOCC(=O)N[C@H](CCCCN)C(N)=O)[C@@H](C)O` showed an IC50 of more than 1000 nM.
The value for `CC(=O)N[C@@H](CS)C(=O)N[C@@H](C)C(=O)N[C@@H](CC(=O)O)C(=O)N[C@@H](Cc1c[nH]c2ccccc12)C(=O)N[C@H](C(=O)N[C@@H](CS)C(=O)N[C@@H](Cc1ccc(O)cc1)C(=O)N[C@@H](Cc1c[nH]c2ccccc12)C(=O)N[C@@H](Cc1cnc[nH]1)C(=O)N[C@@H](CCCCN)C(=O)N[C@@H](Cc1ccccc1)C(=O)NCC(=O)O)C(C)C` was more than 1000 nM; that for `CCCCCCCCCCCCCCCC(=O)NCCCC[C@H](NC(=O)[C@H](CCC(=O)O)NC(=O)[C@H](CC(C)C)NC(=O)[C@H](Cc1c[nH]c2ccccc12)NC(=O)[C@H](Cc1ccc(O)cc1)NC(=O)[C@H](CS)NC(=O)[C@H](CCC(N)=O)NC(=O)[C@H](Cc1c[nH]c2ccccc12)NC(=O)[C@@H](NC(=O)[C@H](CCC(N)=O)NC(=O)[C@H](CS)NC(C)=O)[C@@H](C)O)C(=O)NCC(N)=O` (Ac-CQTWQCYWLEK(Palmitoyl)G-NH2) was more than 6000 nM.
In the case of `CC(C)[C@H](NC(=O)[C@H](Cc1c[nH]c2ccccc12)NC(=O)[C@H](CC(=O)O)NC(=O)[C@H](C)NC(=O)[C@H](CS)NC(=O)COCCN)C(=O)N[C@@H](CS)C(=O)N[C@@H](Cc1ccc(O)cc1)C(=O)N[C@@H](Cc1c[nH]c2ccccc12)C(=O)N[C@@H](Cc1cnc[nH]1)C(=O)N[C@H](C(=O)N[C@@H](Cc1ccccc1)C(=O)NCC(=O)O)[C@@H](C)O` it was more than 1000 nM; in that of `CC(C)CC[C@H](NC(=O)[C@H](Cc1c[nH]c2ccccc12)NC(=O)[C@H](Cc1ccc(O)cc1)NC(=O)[C@H](CS)NC(=O)[C@H](CCC(N)=O)NC(=O)[C@H](Cc1c[nH]c2ccccc12)NC(=O)[C@@H](NC(=O)[C@H](CCC(N)=O)NC(=O)[C@@H](N)CS)[C@@H](C)O)C(=O)N[C@@H](CCC(=O)O)C(=O)N[C@@H](CC(N)=O)C(=O)NCC(=O)NCCOCC(=O)N[C@H](CCCCN)C(N)=O`, less than 500 nM.
The value for `CC(=O)N[C@@H](CS)C(=O)N[C@@H](C)C(=O)N[C@@H](CC(=O)O)C(=O)N[C@@H](Cc1c[nH]c2ccccc12)C(=O)N[C@H](C(=O)N[C@@H](CS)C(=O)N[C@@H](Cc1ccc(O)cc1)C(=O)N[C@@H](Cc1c[nH]c2ccccc12)C(=O)N[C@@H](Cc1cnc[nH]1)C(=O)N[C@@H](CCCNC(=N)N)C(=O)N[C@@H](Cc1cnc[nH]1)C(=O)N[C@@H](C)C(=O)N[C@@H](CC(=O)O)C(=O)N[C@@H](CCCNC(=N)N)C(=O)N[C@H](C(=O)N[C@@H](CCCCN)C(N)=O)C(C)C)C(C)C` (Ac-CADWVCYWHRHADRVK-NH2) was less than 500 nM.
